ChEMBL document CHEMBL4033720, “Discovery of novel cyclic peptide inhibitors of dengue virus NS2B-NS3 protease with antiviral activity” (Bioorg Med Chem Lett, 2017)
Where a SMILES comes first, the peptide text is derived from it.

What was measured:
[1] = Inhibition of dengue virus 2 NS2B-NS3 protease pre-incubated for 10 mins before Boc-Gly-Arg-Arg-peptidyl-4-methylcoumaryl-7-amide substrate addition and measured after 2 hrs by fluorescence based assay; parameters: species or system dengue virus type 2
dengue virus type 2 = test: Antiviral activity against dengue virus 2 infected in BHK21 cells assessed as inhibition of virus-induced cytopathic effect after 4 days by resazurin dye based method; assay type: functional, cell-based
[2] = Toxicity in BHK21 cells assessed a reduction in cell viability after 4 days by resazurin dye based method; parameters: species or system Mesocricetus auratus, BHK-21; details: hamster
[3] = Stability assessed as dengue virus 2 NS2B-NS3 protease-mediated compound degradation by measuring linear peptide with P1 C-terminus and P' N-terminus at 200 uM in presence of […] incubated for 0 to 22.5 hrs by LC-MS method; assay type: ADME; details: dengue virus type 2, 200 µM
[4] = Stability assessed as dengue virus 2 NS2B-NS3 protease-mediated compound degradation at 200 uM in presence of […] incubated for 0 to 22.5 hrs by LC-MS method; assay type: ADME; details: dengue virus type 2, 200 µM
[5] = Selectivity index, ratio of CC50 for toxicity in BHK21 cells to EC50 for antiviral activity against dengue virus 2 infected in BHK21 cells; assay type: cell-based; details: hamster, read-out: Ratio CC50/EC50
[6] = Dengue virus, BHK-21, 96 h, read-out: EC50

## N=C(N)NCCC[C@@H]1NC(=O)[C@H](CCCNC(=N)N)NC(=O)[C@H]2CCCN2C(=O)[C@@H](Cc2ccccc2)NC(=O)[C@H](CO)NC(=O)[C@H](Cc2ccc(-c3ccccc3)cc2)NC(=O)[C@H](CO)NC(=O)[C@H](CCCCN)NC1=O
[1]
  IC50: 3.8 µM
Dengue virus type 2; [6]
  EC50: 108 µM
[2]
  CC50 at 96 h: > 400 µM

## N=C(N)NCCC[C@@H]1NC(=O)[C@H](CCCCN)NC(=O)CNC(=O)[C@@H](Cc2ccccc2)NC(=O)[C@H](CO)NC(=O)[C@H](CCc2ccccc2)NC(=O)[C@H](CO)NC(=O)[C@H](CCCCN)NC1=O
[1]
  IC50: 5 µM

## C[C@H]1NC(=O)[C@@H](Cc2ccccc2)NC(=O)[C@H](CO)NC(=O)[C@H](CCc2ccccc2)NC(=O)[C@H](CO)NC(=O)[C@H](CCCCN)NC(=O)[C@H](CCCNC(=N)N)NC(=O)[C@H](CCCCN)NC1=O
[1]
  IC50: 3.3 µM

## C[C@@H]1NC(=O)[C@H](CCc2ccccc2)NC(=O)[C@H](CO)NC(=O)[C@H](CCCCN)NC(=O)[C@H](CCCNC(=N)N)NC(=O)[C@H](CCCCN)NC(=O)CNC(=O)[C@H](c2ccccc2)NC1=O
[1]
  IC50: 22.2 µM

## N=C(N)NCCC[C@@H]1NC(=O)[C@H](CCCCN)NC(=O)[C@H]2CCCN2C(=O)[C@@H](Cc2ccccc2)NC(=O)[C@H](CO)NC(=O)[C@H](Cc2ccc3ccccc3c2)NC(=O)[C@H](CO)NC(=O)[C@H](CCCCN)NC1=O
[1]
  IC50: 2.6 µM
Dengue virus type 2; [6]
  EC50: 306 µM
[2]
  CC50 at 96 h: > 400 µM

## C[C@@H]1NC(=O)[C@H](CCc2ccccc2)NC(=O)[C@H](CO)NC(=O)[C@H](CCCCN)NC(=O)[C@H](CCCNC(=N)N)NC(=O)[C@H](CCCCN)NC(=O)CNC(=O)[C@@H](c2ccccc2)NC1=O
[1]
  IC50: 15.1 µM

## C[C@@H]1NC(=O)[C@H](CS)NC(=O)[C@@H](CCc2ccccc2)NC(=O)[C@H](CO)NC(=O)[C@H](CCCCN)NC(=O)[C@H](CCCNC(=N)N)NC(=O)[C@H](CCCCN)NC(=O)CNC1=O
[1]
  IC50: 38.7 µM

## C[C@@H]1NC(=O)[C@H](CCc2ccccc2)NC(=O)[C@H](CO)NC(=O)[C@H](CCCCN)NC(=O)[C@H](CCCNC(=N)N)NC(=O)[C@H](CCCCN)NC(=O)CNC(=O)[C@@H](Cc2ccccc2)NC1=O
[1]
  IC50: 7.6 µM

## N=C(N)NCCC[C@@H]1NC(=O)[C@H](CCCCN)NC(=O)[C@@H]2CCCN2C(=O)[C@@H](Cc2ccccc2)NC(=O)[C@H](CO)NC(=O)[C@H](CCc2ccccc2)NC(=O)[C@H](CO)NC(=O)[C@H](CCCCN)NC1=O
[1]
  IC50: 52 µM

## N=C(N)NCCC[C@@H]1NC(=O)[C@H](CCCNC(=N)N)NC(=O)[C@@H](CCCNC(=N)N)NC(=O)[C@@H](Cc2ccccc2)NC(=O)[C@H](Cc2cccc3ccccc23)NC(=O)[C@H](CCc2ccccc2)NC(=O)[C@H](CO)NC(=O)[C@H](CCCCN)NC1=O
[1]
  IC50: 1.6 µM
Dengue virus type 2; [6]
  EC50: 23.2 µM
[2]
  CC50 at 96 h: 233 µM
[3]
  Drug metabolism: Metabolite_Detected
[4]
  Stability: Unstable

## N=C(N)NCCC[C@@H]1NC(=O)[C@H](CCCNC(=N)N)NC(=O)[C@@H](CCCNC(=N)N)NC(=O)[C@@H](Cc2ccc3ccccc3c2)NC(=O)[C@H](Cc2ccccc2)NC(=O)[C@H](CCc2ccccc2)NC(=O)[C@@H](Cc2ccccc2)NC(=O)[C@H](CCCCN)NC1=O
[1]
  IC50: 1.7 µM
Dengue virus type 2; [6]
  EC50: 4.6 µM
[2]
  CC50 at 96 h: 86 µM

## C[C@@H]1NC(=O)[C@@H](Cc2ccccc2)NC(=O)[C@H](CO)NC(=O)[C@H](CCc2ccccc2)NC(=O)[C@H](CO)NC(=O)[C@H](CCCCN)NC(=O)[C@H](CCCNC(=N)N)NC(=O)[C@H](CCCCN)NC1=O
[1]
  IC50: 28.5 µM

## N=C(N)NCCC[C@@H]1NC(=O)[C@H](CCCNC(=N)N)NC(=O)[C@@H](CCCNC(=N)N)NC(=O)[C@@H](Cc2ccccc2)NC(=O)[C@H](CO)NC(=O)[C@H](Cc2ccc(-c3ccccc3)cc2)NC(=O)[C@H](CO)NC(=O)[C@H](CCCCN)NC1=O
[1]
  IC50: 3.7 µM
Dengue virus type 2; [6]
  EC50: 87.5 µM
[2]
  CC50 at 96 h: > 400 µM

## C[C@@H]1NC(=O)[C@H](CCc2ccccc2)NC(=O)[C@H](CO)NC(=O)[C@H](CCCCN)NC(=O)[C@H](CCCNC(=N)N)NC(=O)[C@H](CCCCN)NC(=O)CNC(=O)[C@@H](CCc2ccccc2)NC1=O
[1]
  IC50: 16.2 µM

## N=C(N)NCCC[C@@H]1NC(=O)[C@H](CCCNC(=N)N)NC(=O)[C@@H](CCCNC(=N)N)NC(=O)[C@@H](Cc2ccccc2)NC(=O)[C@H](Cc2ccc3ccccc3c2)NC(=O)[C@H](CCc2ccccc2)NC(=O)[C@H](CO)NC(=O)[C@H](CCCCN)NC1=O
[1]
  IC50: 1.5 µM
Dengue virus type 2; [6]
  EC50: 48.5 µM
[2]
  CC50 at 96 h: 210 µM

## N=C(N)NCCC[C@@H]1NC(=O)[C@H](CCCCN)NC(=O)[C@H]2CCCN2C(=O)[C@@H](Cc2ccccc2)NC(=O)[C@H](CO)NC(=O)[C@H](Cc2ccc(-c3ccccc3)cc2)NC(=O)[C@H](CO)NC(=O)[C@H](CCCCN)NC1=O
[1]
  IC50: 3.8 µM
Dengue virus type 2; [6]
  EC50: 293 µM
[2]
  CC50 at 96 h: > 400 µM

## C[C@@H]1NC(=O)[C@H](CCc2ccccc2)NC(=O)[C@H](CO)NC(=O)[C@H](CCCCN)NC(=O)[C@H](CCCNC(=N)N)NC(=O)[C@H](CCCCN)NC(=O)CNC(=O)[C@H](CCc2ccccc2)NC1=O
[1]
  IC50: 25.6 µM

## N=C(N)NCCC[C@@H]1NC(=O)[C@H](CCCNC(=N)N)NC(=O)[C@@H](CCCNC(=N)N)NC(=O)[C@@H](CCCNC(=N)N)NC(=O)[C@H](CO)NC(=O)[C@H](Cc2ccc(-c3ccccc3)cc2)NC(=O)[C@H](CO)NC(=O)[C@H](CCCCN)NC1=O
[1]
  IC50: 2.3 µM
Dengue virus type 2; [6]
  EC50: 141 µM
[2]
  CC50 at 96 h: > 400 µM

## N=C(N)NCCC[C@@H]1NC(=O)[C@H](CCCNC(=N)N)NC(=O)[C@@H](CCCNC(=N)N)NC(=O)[C@@H](Cc2ccc3ccccc3c2)NC(=O)[C@H](Cc2ccccc2)NC(=O)[C@H](CCc2ccccc2)NC(=O)[C@@H](Cc2ccc3ccccc3c2)NC(=O)[C@H](CCCCN)NC1=O
[1]
  IC50: 1.1 µM
Dengue virus type 2; [6]
  EC50: 2 µM
[2]
  CC50 at 96 h: 24 µM
[5]
  selectivity ratio: > 10

## C[C@@H]1NC(=O)[C@H](CS)NC(=O)[C@H](CCc2ccccc2)NC(=O)[C@H](CO)NC(=O)[C@H](CCCCN)NC(=O)[C@H](CCCNC(=N)N)NC(=O)[C@H](CCCCN)NC(=O)CNC1=O
[1]
  IC50: 9.2 µM

## N=C(N)NCCC[C@@H]1NC(=O)[C@H](CCCCN)NC(=O)[C@H]2CCCN2C(=O)[C@@H](Cc2ccccc2)NC(=O)[C@H](CO)NC(=O)[C@H](CCc2ccccc2)NC(=O)[C@H](CO)NC(=O)[C@H](CCCCN)NC1=O
[1]
  IC50: 0.95 µM
Dengue virus type 2
  EC50: Not Active
[4]
  Stability: Unstable

## C[C@@H]1NC(=O)[C@H](CCc2ccccc2)NC(=O)[C@H](CO)NC(=O)[C@H](CCCCN)NC(=O)[C@H](CCCNC(=N)N)NC(=O)[C@H](CCCCN)NC(=O)CNC(=O)[C@H](Cc2ccccc2)NC1=O
[1]
  IC50: 19.8 µM

## C[C@@H]1NC(=O)CNC(=O)[C@H](CO)NC(=O)[C@H](CCCCN)NC(=O)[C@H](CCCNC(=N)N)NC(=O)[C@H](CCCCN)NC(=O)CNC(=O)[C@H](C)NC1=O (HELM PEPTIDE1{A.A.G.K.R.K.S.G}$PEPTIDE1,PEPTIDE1,1:R1-8:R2$$$V2.0)
[1]
  IC50: 57.4 µM

## C[C@@H]1NC(=O)[C@H](C)NC(=O)[C@H](CCc2ccccc2)NC(=O)[C@H](CO)NC(=O)[C@H](CCCCN)NC(=O)[C@H](CCCNC(=N)N)NC(=O)[C@H](CCCCN)NC(=O)CNC1=O (HELM PEPTIDE1{A.A.G.K.R.K.S.[O=C([C@H](CCc1ccccc1)N[*:1])[*:2]]}$PEPTIDE1,PEPTIDE1,1:R1-8:R2$$$V2.0)
[1]
  IC50: 18.4 µM

## C[C@@H]1NC(=O)CNC(=O)[C@H](C)NC(=O)[C@H](CS)NC(=O)CNC(=O)[C@H](CO)NC(=O)[C@H](CCCCN)NC(=O)[C@H](CCCNC(=N)N)NC1=O (HELM PEPTIDE1{A.G.A.R.K.S.G.C}$PEPTIDE1,PEPTIDE1,1:R1-8:R2$$$V2.0)
[1]
  IC50: > 200 µM

## C[C@@H]1NC(=O)[C@H](CS)NC(=O)CNC(=O)[C@H](C)NC(=O)[C@H](CCCCN)NC(=O)[C@H](CCCNC(=N)N)NC(=O)[C@H](CCCCN)NC(=O)CNC1=O (HELM PEPTIDE1{A.G.C.A.G.K.R.K}$PEPTIDE1,PEPTIDE1,1:R1-8:R2$$$V2.0)
[1]
  IC50: > 200 µM

## C[C@@H]1NC(=O)[C@H](CS)NC(=O)CNC(=O)[C@H](CO)NC(=O)[C@H](CCCCN)NC(=O)[C@H](C)NC(=O)[C@H](CCCCN)NC(=O)CNC1=O (HELM PEPTIDE1{A.G.K.A.K.S.G.C}$PEPTIDE1,PEPTIDE1,1:R1-8:R2$$$V2.0)
[1]
  IC50: > 200 µM

## C[C@@H]1NC(=O)[C@H](CS)NC(=O)CNC(=O)[C@H](CO)NC(=O)[C@H](C)NC(=O)[C@H](CCCNC(=N)N)NC(=O)[C@H](CCCCN)NC(=O)CNC1=O (HELM PEPTIDE1{A.G.K.R.A.S.G.C}$PEPTIDE1,PEPTIDE1,1:R1-8:R2$$$V2.0)
[1]
  IC50: > 200 µM

## C[C@@H]1NC(=O)[C@H](CS)NC(=O)[C@H](Cc2ccccc2)NC(=O)[C@H](CO)NC(=O)[C@H](CCCCN)NC(=O)[C@H](CCCNC(=N)N)NC(=O)[C@H](CCCCN)NC(=O)CNC1=O (HELM PEPTIDE1{A.G.K.R.K.S.F.C}$PEPTIDE1,PEPTIDE1,1:R1-8:R2$$$V2.0)
[1]
  IC50: 39.3 µM

## C[C@@H]1NC(=O)[C@H](CS)NC(=O)CNC(=O)[C@H](CO)NC(=O)[C@H](CCCCN)NC(=O)[C@H](CCCNC(=N)N)NC(=O)[C@H](CCCCN)NC(=O)CNC1=O (HELM PEPTIDE1{A.G.K.R.K.S.G.C}$PEPTIDE1,PEPTIDE1,1:R1-8:R2$$$V2.0)
[1]
  IC50: 114 µM

## C[C@@H]1NC(=O)[C@H](CS)NC(=O)[C@H](c2ccccc2)NC(=O)[C@H](CO)NC(=O)[C@H](CCCCN)NC(=O)[C@H](CCCNC(=N)N)NC(=O)[C@H](CCCCN)NC(=O)CNC1=O (HELM PEPTIDE1{A.G.K.R.K.S.[Phg].C}$PEPTIDE1,PEPTIDE1,1:R1-8:R2$$$V2.0)
[1]
  IC50: 22.1 µM
